Patent US20220202799A1, “PHARMACEUTICAL FORMULATIONS CONTAINING P2Y14 ANTAGONISTS” (priority 2019, published 2022)
“And” between values parts separate entries of the source, which are not always exact repeats. Identical values can stand only once. Like-named read-outs stand apart in the source and are kept apart here.

Test: Plasma concentrations and TK parameters, 72-hour continuous intravenous infusion
Format: in vivo, Sprague-Dawley rats
Details: for Accumulation ratio (C72h/C24h) / Css / Female/Male C72h / Accumulation ratio / half-life: 72 hours of intravenous infusion; for half-life / concentration at 24 h / concentration at 48 h / concentration at 72 h / concentration at 78 h / concentration at 84 h / concentration at 96 h: Sprague-Dawley, rat, plasma; for Plasma concentration, individual animal / concentration at 24 h / concentration at 48 h / concentration at 72 h / concentration at 78 h / concentration at 84 h / concentration at 96 h: female Sprague-Dawley rats; for concentration at 24 h / concentration at 48 h / concentration at 72 h / concentration at 78 h / concentration at 84 h / concentration at 96 h: female, iv
Description: The safety and pharmacokinetics of PPTN (KB-1801) in rats receiving continuous intravenous injections of SBECD-containing solutions were analyzed. Three cohorts of six male and six female rats each were given continuous intravenous infusion of PPTN (KB-1801) at 10 mg/kg/day, 30 mg/kg/day or 100 mg/kg/day in a dosing solution containing PPTN at 0.25 mg/mL, 0.75 mg/mL or 2.5 mg/mL and SBECD at about 3.8%. Dosing volume was 40 mIkg/day. [table]

[1] = Female, Group 16, 100 mg/kg/day

## O=C(O)c1cc(-c2ccc(C3CCNCC3)cc2)c2ccc(-c3ccc(C(F)(F)F)cc3)cc2c1 [KB-1801, 4-[4-(piperidin-4-yl)phenyl]-7-[4-(trifluoromethyl)phenyl]-2-naphthoic acid]
Female, Group14, 10 mg/kg/day
  Accumulation ratio (C72h/C24h): 0.91
  Css: 606.0 ± 52.0 ng/mL
  half-life: 6.67 ± 1.21 h
Female, Group 15, 30 mg/kg/day
  Accumulation ratio (C72h/C24h): 0.84
  Css: 2037.0 ± 433.7 ng/mL
  half-life: 7.06 ± 0.93 h
[1]
  Accumulation ratio (C72h/C24h): 0.88
  Css: 6595.6 ± 696.2 ng/mL
  half-life: 6.64 ± 0.36 h
Group14, 10 mg/kg/day
  Female/Male C72h: 1.05
Group 15, 30 mg/kg/day
  Female/Male C72h: 1.18
Group 16, 100 mg/kg/day
  Female/Male C72h: 0.70
Male, Group14, 10 mg/kg/day
  Accumulation ratio: 0.74
  Css: 636.4 ± 96.8 ng/mL
  half-life: 7.91 ± 1.06 h
Male, Group 15, 30 mg/kg/day
  Accumulation ratio: 0.86
  Css: 1974.4 ± 240.2 ng/mL
  half-life: 8.29 ± 0.93 h
Male, Group 16, 100 mg/kg/day
  Accumulation ratio: 1.03
  Css: 7774.6 ± 1241.3 ng/mL
  half-life: 8.83 ± 3.33 h
72-hour intravenous infusion at 10 mg/kg/day, time 24 h, 10 mg/kg/day
  Plasma concentration, individual animal: 784.2 ng/mL and 685.7 ng/mL
72-hour intravenous infusion at 10 mg/kg/day, time 48 h, 10 mg/kg/day
  Plasma concentration, individual animal: 650.5 ng/mL and 588.8 ng/mL
72-hour intravenous infusion at 10 mg/kg/day, time 72 h, 10 mg/kg/day
  Plasma concentration, individual animal: 756.4 ng/mL and 602.0 ng/mL
72-hour intravenous infusion at 10 mg/kg/day, time 78 h, 10 mg/kg/day
  Plasma concentration, individual animal: 131.4 ng/mL and 160.1 ng/mL
72-hour intravenous infusion at 10 mg/kg/day, time 84 h, 10 mg/kg/day
  Plasma concentration, individual animal: 103.5 ng/mL and 64.3 ng/mL
72-hour intravenous infusion at 10 mg/kg/day, time 96 h, 10 mg/kg/day
  Plasma concentration, individual animal: 22.9 ng/mL and 15.3 ng/mL
72-hour intravenous infusion at 30 mg/kg/day, time 24 h, 30 mg/kg/day
  Plasma concentration, individual animal: 2027.1 ng/mL and 2581.5 ng/mL
72-hour intravenous infusion at 30 mg/kg/day, time 48 h, 30 mg/kg/day
  Plasma concentration, individual animal: 1661.0 ng/mL and 1763.6 ng/mL
72-hour intravenous infusion at 30 mg/kg/day, time 72 h, 30 mg/kg/day
  Plasma concentration, individual animal: 1397.7 ng/mL and 2300.3 ng/mL
72-hour intravenous infusion at 30 mg/kg/day, time 78 h, 30 mg/kg/day
  Plasma concentration, individual animal: 449.3 ng/mL and 585.0 ng/mL
72-hour intravenous infusion at 30 mg/kg/day, time 84 h, 30 mg/kg/day
  Plasma concentration, individual animal: 453.1 ng/mL and 160.2 ng/mL and 306.2 ng/mL
72-hour intravenous infusion at 30 mg/kg/day, time 96 h, 30 mg/kg/day
  Plasma concentration, individual animal: 75.6 ng/mL and 115.3 ng/mL
72-hour intravenous infusion at 100 mg/kg/day, time 24 h, 100 mg/kg/day
  Plasma concentration, individual animal: 6709.0 ng/mL and 8238.2 ng/mL
72-hour intravenous infusion at 100 mg/kg/day, time 48 h, 100 mg/kg/day
  Plasma concentration, individual animal: 5872.0 ng/mL and 8226.5 ng/mL
72-hour intravenous infusion at 100 mg/kg/day, time 72 h, 100 mg/kg/day
  Plasma concentration, individual animal: 6680.1 ng/mL and 6734.5 ng/mL
72-hour intravenous infusion at 100 mg/kg/day, time 78 h, 100 mg/kg/day
  Plasma concentration, individual animal: 1454.4 ng/mL and 2119.8 ng/mL
72-hour intravenous infusion at 100 mg/kg/day, time 84 h, 100 mg/kg/day
  Plasma concentration, individual animal: 1075.5 ng/mL and 1046.1 ng/mL
72-hour intravenous infusion at 100 mg/kg/day, time 96 h, 100 mg/kg/day
  Plasma concentration, individual animal: 211.8 ng/mL and 342.6 ng/mL
10 mg/kg/day, 72-hour intravenous infusion at 10 mg/kg/day, time 24 h, read-out: Plasma concentration, Mean
  concentration at 24 h: 688 ng/mL
10 mg/kg/day, 72-hour intravenous infusion at 10 mg/kg/day, time 24 h, read-out: Plasma concentration, individual animal
  concentration at 24 h: 595 ng/mL
10 mg/kg/day, 72-hour intravenous infusion at 10 mg/kg/day, time 48 h, read-out: Plasma concentration, Mean
  concentration at 48 h: 654 ng/mL
10 mg/kg/day, 72-hour intravenous infusion at 10 mg/kg/day, time 48 h, read-out: Plasma concentration, individual animal
  concentration at 48 h: 722 ng/mL
10 mg/kg/day, 72-hour intravenous infusion at 10 mg/kg/day, time 72 h, read-out: Plasma concentration, Mean
  concentration at 72 h: 624 ng/mL
10 mg/kg/day, 72-hour intravenous infusion at 10 mg/kg/day, time 72 h, read-out: Plasma concentration, individual animal
  concentration at 72 h: 514 ng/mL
10 mg/kg/day, 72-hour intravenous infusion at 10 mg/kg/day, time 78 h, read-out: Plasma concentration, Mean
  concentration at 78 h: 147 ng/mL
10 mg/kg/day, 72-hour intravenous infusion at 10 mg/kg/day, time 78 h, read-out: Plasma concentration, individual animal
  concentration at 78 h: 150 ng/mL
10 mg/kg/day, 72-hour intravenous infusion at 10 mg/kg/day, time 84 h, read-out: Plasma concentration, Mean
  concentration at 84 h: 80.9 ng/mL
10 mg/kg/day, 72-hour intravenous infusion at 10 mg/kg/day, time 84 h, read-out: Plasma concentration, individual animal
  concentration at 84 h: 74.8 ng/mL
10 mg/kg/day, 72-hour intravenous infusion at 10 mg/kg/day, time 96 h, read-out: Plasma concentration, Mean
  concentration at 96 h: 22.5 ng/mL
10 mg/kg/day, 72-hour intravenous infusion at 10 mg/kg/day, time 96 h, read-out: Plasma concentration, individual animal
  concentration at 96 h: 29.3 ng/mL
30 mg/kg/day, 72-hour intravenous infusion at 30 mg/kg/day, time 24 h, read-out: Plasma concentration, Mean
  concentration at 24 h: 2340 ng/mL
30 mg/kg/day, 72-hour intravenous infusion at 30 mg/kg/day, time 24 h, read-out: Plasma concentration, individual animal
  concentration at 24 h: 2420 ng/mL
30 mg/kg/day, 72-hour intravenous infusion at 30 mg/kg/day, time 48 h, read-out: Plasma concentration, Mean
  concentration at 48 h: 2210 ng/mL
30 mg/kg/day, 72-hour intravenous infusion at 30 mg/kg/day, time 48 h, read-out: Plasma concentration, individual animal
  concentration at 48 h: 3220 ng/mL
30 mg/kg/day, 72-hour intravenous infusion at 30 mg/kg/day, time 72 h, read-out: Plasma concentration, Mean
  concentration at 72 h: 1970 ng/mL
30 mg/kg/day, 72-hour intravenous infusion at 30 mg/kg/day, time 72 h, read-out: Plasma concentration, individual animal
  concentration at 72 h: 2210 ng/mL
30 mg/kg/day, 72-hour intravenous infusion at 30 mg/kg/day, time 78 h, read-out: Plasma concentration, Mean
  concentration at 78 h: 544 ng/mL
30 mg/kg/day, 72-hour intravenous infusion at 30 mg/kg/day, time 78 h, read-out: Plasma concentration, individual animal
  concentration at 78 h: 597 ng/mL
30 mg/kg/day, 72-hour intravenous infusion at 30 mg/kg/day, time 84 h, read-out: Plasma concentration, Mean
  concentration at 84 h: 306 ng/mL
30 mg/kg/day, 72-hour intravenous infusion at 30 mg/kg/day, time 96 h, read-out: Plasma concentration, Mean
  concentration at 96 h: 90.8 ng/mL
30 mg/kg/day, 72-hour intravenous infusion at 30 mg/kg/day, time 96 h, read-out: Plasma concentration, individual animal
  concentration at 96 h: 81.6 ng/mL
100 mg/kg/day, 72-hour intravenous infusion at 100 mg/kg/day, time 24 h, read-out: Plasma concentration, Mean
  concentration at 24 h: 7740 ng/mL
100 mg/kg/day, 72-hour intravenous infusion at 100 mg/kg/day, time 24 h, read-out: Plasma concentration, individual animal
  concentration at 24 h: 8270 ng/mL
100 mg/kg/day, 72-hour intravenous infusion at 100 mg/kg/day, time 48 h, read-out: Plasma concentration, Mean
  concentration at 48 h: 6720 ng/mL
